According to ChEMBL document CHEMBL5346968, “Exploring Structural Determinants of Bias among D4 Subtype-Selective Dopamine Receptor Agonists” (J Med Chem, 2023):

How the values were obtained:
[1] = target: T1, D(2) dopamine receptor (Homo sapiens, UniProt P14416); test: Displacement of [3H]-N-methylspiperone from human dopmaine D2L receptor expressed in CHO cell membrane assessed as inhibition constant by competition binding assay; type: cell membranes
[2] = target: T1, D(2) dopamine receptor; test: Displacement of [3H]-N-methylspiperone from human dopmaine D2S receptor expressed in CHO cell membrane assessed as inhibition constant by competition binding assay; type: cell membranes
[3] = target: T2, D(4) dopamine receptor (Homo sapiens, UniProt P21917); test: Displacement of [3H]-N-methylspiperone from human dopmaine D4.4 receptor expressed in HEK293T cells assessed as inhibition constant by competition binding assay; type: cell-based
T2 sequence (P21917 whole entry): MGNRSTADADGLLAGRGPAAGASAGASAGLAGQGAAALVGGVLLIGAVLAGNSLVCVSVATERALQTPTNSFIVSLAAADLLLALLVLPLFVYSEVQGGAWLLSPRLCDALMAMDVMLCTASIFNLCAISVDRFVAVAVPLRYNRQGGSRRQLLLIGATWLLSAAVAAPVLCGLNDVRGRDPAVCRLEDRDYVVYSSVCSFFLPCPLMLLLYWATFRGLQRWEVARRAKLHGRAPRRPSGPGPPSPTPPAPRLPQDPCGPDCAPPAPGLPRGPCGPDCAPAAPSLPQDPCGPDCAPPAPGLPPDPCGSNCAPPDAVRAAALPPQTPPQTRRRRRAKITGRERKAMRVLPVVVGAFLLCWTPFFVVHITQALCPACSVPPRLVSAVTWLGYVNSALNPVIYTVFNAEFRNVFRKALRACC

[4] = target: D(3) dopamine receptor (Homo sapiens, UniProt P35462); test: Displacement of [3H]-N-methylspiperone from human dopmaine D3 receptor expressed in HEK293T cells assessed as inhibition constant by competition binding assay; type: cell-based
Sequence of D(3) dopamine receptor (P35462 whole entry): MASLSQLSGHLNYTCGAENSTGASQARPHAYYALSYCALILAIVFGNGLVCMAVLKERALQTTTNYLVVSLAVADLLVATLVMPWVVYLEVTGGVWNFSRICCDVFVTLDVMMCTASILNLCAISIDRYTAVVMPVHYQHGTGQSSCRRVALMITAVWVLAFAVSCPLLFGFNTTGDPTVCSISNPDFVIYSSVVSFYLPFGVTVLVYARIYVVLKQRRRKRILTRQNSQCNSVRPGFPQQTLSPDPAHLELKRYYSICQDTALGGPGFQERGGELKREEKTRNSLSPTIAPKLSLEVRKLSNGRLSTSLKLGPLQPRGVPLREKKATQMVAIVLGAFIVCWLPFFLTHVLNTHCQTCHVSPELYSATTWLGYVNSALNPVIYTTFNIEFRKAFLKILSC

[5] = target: T2, D(4) dopamine receptor; test: Agonist activity at human dopamine D4 receptor transfected in HEK293T cells co-transfected with Galpha-qi assessed as activation of GPCR-mediated receptor signaling incubated for 90 mins by IP-one HTRF assay; type: functional, cell-based
[6] = target: T2, D(4) dopamine receptor; test: Agonist activity at PKA-tagged human dopamine D4 receptor transfected in HEK293T cells expressing (EA)-beta-arrestin assessed as beta-arrestin recruitment incubated for 3 hrs by chemiluminescence based PathHunter assay; type: functional, cell-based
[7] = target: T2, D(4) dopamine receptor; test: Agonist activity at PKA-tagged human dopamine D4 receptor transfected in HEK293T cells expressing (EA)-beta-arrestin and GRK2 assessed as beta-arrestin recruitment incubated for 3 hrs by chemiluminescence based PathHunter assay; type: functional, cell-based
[8] = Metabolic stability in pooled rat liver microsomes assessed as parent compound remaining at 40 uM measured after 60 mins in the presence of NADPH by HPLC(UV) analysis; type: ADME, Microsome; conditions: read-out: Stability
[9] = Drug metabolism in pooled rat liver microsomes assessed as hydroxylation mediated metabolite formation at 40 uM measured upto 60 mins in the presence of NADPH by HPLC(UV) analysis; type: ADME, Microsome; conditions: 1 h
[10] = Drug metabolism in pooled rat liver microsomes assessed as O-demethylation mediated metabolite formation at 40 uM measured upto 60 mins in the presence of NADPH by HPLC(UV) analysis; type: ADME, Microsome; conditions: 1 h
[11] = target: D(1A) dopamine receptor (Homo sapiens, UniProt P21728); test: Displacement of [3H]SCH23390 from human dopamine D1 receptor expressed in HEK293T cells assessed as inhibition constant by competition binding assay; type: cell-based
Sequence of D(1A) dopamine receptor (P21728 whole entry): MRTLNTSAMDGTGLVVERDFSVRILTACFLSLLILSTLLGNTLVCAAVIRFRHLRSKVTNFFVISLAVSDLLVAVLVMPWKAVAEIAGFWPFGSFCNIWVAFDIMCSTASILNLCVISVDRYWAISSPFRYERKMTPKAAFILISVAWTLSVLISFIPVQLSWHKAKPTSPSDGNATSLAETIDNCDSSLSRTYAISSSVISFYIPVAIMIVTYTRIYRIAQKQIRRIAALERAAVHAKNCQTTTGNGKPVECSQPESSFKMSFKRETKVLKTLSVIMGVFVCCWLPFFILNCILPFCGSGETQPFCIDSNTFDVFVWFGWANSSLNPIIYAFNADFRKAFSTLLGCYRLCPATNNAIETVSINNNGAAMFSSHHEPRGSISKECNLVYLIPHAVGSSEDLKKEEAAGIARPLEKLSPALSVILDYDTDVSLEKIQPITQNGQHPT

[12] = Retention time of the compound by HPLC(UV) method; type: physicochemical
[13] = target: T3, Alpha-1A adrenergic receptor (Homo sapiens, UniProt P35348); test: Displacement of [3H]prazosin from adrenergic alpha 1A receptor (unknown origin) expressed in HEK293T cells assessed as inhibition constant by competition binding assay; type: cell-based
T3 sequence (P35348 whole entry): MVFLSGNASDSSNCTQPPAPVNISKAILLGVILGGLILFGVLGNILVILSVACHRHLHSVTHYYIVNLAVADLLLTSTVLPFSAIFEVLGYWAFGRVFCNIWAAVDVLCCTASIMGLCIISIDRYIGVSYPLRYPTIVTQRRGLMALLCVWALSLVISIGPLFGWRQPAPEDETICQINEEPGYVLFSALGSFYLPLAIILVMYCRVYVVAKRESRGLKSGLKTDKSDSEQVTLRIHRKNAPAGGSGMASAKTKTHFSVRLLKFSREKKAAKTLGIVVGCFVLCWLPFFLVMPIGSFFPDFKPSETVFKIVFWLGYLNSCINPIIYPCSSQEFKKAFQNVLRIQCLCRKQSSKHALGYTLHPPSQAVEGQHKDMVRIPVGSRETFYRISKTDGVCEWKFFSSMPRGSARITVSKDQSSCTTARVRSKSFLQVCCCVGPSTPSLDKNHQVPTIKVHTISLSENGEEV

[14] = target: D(1B) dopamine receptor (Homo sapiens, UniProt P21918); test: Displacement of [3H]SCH23390 from human dopamine D5 receptor expressed in HEK293T cells assessed as inhibition constant by competition binding assay; type: cell-based
Sequence of D(1B) dopamine receptor (P21918 whole entry): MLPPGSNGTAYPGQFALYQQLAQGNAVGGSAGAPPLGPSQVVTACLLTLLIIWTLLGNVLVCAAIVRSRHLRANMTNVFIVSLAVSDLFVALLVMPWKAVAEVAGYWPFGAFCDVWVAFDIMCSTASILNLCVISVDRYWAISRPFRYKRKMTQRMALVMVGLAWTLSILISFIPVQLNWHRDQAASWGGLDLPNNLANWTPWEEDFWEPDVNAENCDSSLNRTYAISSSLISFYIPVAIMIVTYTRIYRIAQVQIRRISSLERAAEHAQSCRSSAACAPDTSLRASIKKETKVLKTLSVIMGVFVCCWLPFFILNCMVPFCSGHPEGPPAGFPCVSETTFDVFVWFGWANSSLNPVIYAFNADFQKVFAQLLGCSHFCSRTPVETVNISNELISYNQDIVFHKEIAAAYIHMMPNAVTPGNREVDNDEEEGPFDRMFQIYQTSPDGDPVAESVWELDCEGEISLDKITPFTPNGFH

[15] = target: T4, 5-hydroxytryptamine receptor 1A (Homo sapiens, UniProt P08908); test: Displacement of [3H][…] from 5-HT1A receptor (unknown origin) expressed in HEK293T cells assessed as inhibition constant by competition binding assay; type: cell-based
T4 sequence (P08908 whole entry): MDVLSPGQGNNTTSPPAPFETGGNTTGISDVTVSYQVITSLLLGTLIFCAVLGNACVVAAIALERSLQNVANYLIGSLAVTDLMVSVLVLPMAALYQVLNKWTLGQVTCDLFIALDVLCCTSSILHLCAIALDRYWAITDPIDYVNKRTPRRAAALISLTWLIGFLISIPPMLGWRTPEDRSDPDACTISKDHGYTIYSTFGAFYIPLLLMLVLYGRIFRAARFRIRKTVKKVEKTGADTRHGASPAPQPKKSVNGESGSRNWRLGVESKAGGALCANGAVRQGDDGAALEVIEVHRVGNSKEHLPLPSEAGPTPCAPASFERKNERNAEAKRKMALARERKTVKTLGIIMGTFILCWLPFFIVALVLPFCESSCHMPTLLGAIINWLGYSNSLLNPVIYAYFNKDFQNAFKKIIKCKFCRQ

[16] = Permeability of the compound across basal to apical membrane in human Caco-2 cells at 10 uM incubated for 4 hrs in the presence of valspodar by HPLC(UV) analysis; type: ADME, cell-based; conditions: caco-2, 4 h
[17] = target: T5, Alpha-2A adrenergic receptor (Homo sapiens, UniProt P08913); test: Displacement of [3H]RX821002 from adrenergic alpha 2A receptor (unknown origin) expressed in HEK293T cells assessed as inhibition constant by competition binding assay; type: cell-based
T5 sequence (P08913 whole entry): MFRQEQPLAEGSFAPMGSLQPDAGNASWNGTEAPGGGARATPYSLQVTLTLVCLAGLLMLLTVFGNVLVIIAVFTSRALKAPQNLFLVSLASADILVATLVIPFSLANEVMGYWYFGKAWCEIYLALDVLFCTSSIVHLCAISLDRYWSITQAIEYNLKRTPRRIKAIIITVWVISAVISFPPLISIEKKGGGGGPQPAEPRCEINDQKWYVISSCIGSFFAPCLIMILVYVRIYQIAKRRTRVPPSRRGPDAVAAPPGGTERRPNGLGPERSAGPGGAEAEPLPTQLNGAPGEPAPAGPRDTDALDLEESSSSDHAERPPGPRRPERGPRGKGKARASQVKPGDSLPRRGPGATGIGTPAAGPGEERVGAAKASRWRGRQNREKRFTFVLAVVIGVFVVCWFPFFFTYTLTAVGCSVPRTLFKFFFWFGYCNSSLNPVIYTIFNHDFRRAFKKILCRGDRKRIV

[18] = target: 5-hydroxytryptamine receptor 2A (Homo sapiens, UniProt P28223); test: Displacement of [3H]ketanserin from 5-HT2A receptor (unknown origin) expressed in HEK293T cells assessed as inhibition constant by competition binding assay; type: cell-based
Sequence of 5-hydroxytryptamine receptor 2A (P28223 whole entry): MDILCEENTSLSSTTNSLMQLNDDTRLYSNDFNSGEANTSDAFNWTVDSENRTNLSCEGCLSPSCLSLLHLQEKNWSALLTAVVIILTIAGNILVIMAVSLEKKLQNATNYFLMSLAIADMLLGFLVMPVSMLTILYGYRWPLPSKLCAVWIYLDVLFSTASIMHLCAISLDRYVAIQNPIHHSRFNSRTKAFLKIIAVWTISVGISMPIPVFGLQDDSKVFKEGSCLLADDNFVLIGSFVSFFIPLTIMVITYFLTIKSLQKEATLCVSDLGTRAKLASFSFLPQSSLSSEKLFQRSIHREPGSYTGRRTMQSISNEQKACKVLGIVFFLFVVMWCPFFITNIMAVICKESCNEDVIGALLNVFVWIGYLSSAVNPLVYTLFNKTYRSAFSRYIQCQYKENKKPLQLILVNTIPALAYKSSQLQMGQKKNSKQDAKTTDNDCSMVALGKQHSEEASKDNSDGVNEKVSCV

[19] = Permeability of the compound across basal to apical membrane in human Caco-2 cells at 10 uM incubated for 4 hrs by HPLC(UV) analysis; type: ADME, cell-based; conditions: caco-2, 4 h

T1 sequence (P14416 whole entry): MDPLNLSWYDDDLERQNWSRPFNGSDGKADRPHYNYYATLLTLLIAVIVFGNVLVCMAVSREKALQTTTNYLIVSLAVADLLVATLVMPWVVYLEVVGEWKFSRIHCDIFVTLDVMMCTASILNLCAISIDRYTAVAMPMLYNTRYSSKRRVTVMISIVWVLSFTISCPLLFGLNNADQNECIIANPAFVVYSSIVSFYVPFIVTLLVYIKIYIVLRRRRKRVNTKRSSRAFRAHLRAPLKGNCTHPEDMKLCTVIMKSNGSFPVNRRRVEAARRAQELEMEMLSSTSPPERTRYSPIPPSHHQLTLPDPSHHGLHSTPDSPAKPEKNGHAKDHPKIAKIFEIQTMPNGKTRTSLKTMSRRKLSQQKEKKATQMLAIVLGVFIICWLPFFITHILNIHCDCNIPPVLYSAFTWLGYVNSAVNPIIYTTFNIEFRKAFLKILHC

Structure (SMILES)	Ki [1] [nM]	Ki [2] [nM]	Ki [3] [nM]	Ki [4] [nM]	other results
COc1ccccc1N1CCN(CCCNC(=O)Nc2ccc(-c3ccccc3)cc2)CC1	340	130	110	22	–
COc1ccccc1N1CCN(CCCNC(=O)NN(Cc2ccc(F)cc2)c2ccccc2)CC1	–	–	–	–	EC50 [5]: 1.8 nM; EC50 [6]: 350 nM; EC50 [7]: 42 nM
COc1ccc(NC(=O)NCCCN2CCN(c3ccccc3OC)CC2)cc1-c1ccc(F)cc1	89	53	5.8	66	–
COc1cccc(-c2ccccc2NC(=O)NCCCN2CCN(c3ccccc3OC)CC2)c1	120	110	10	24	–
COc1cccc(-c2ccccc2CNC(=O)NCCCN2CCN(c3ccccc3OC)CC2)c1	220	88	13	75	–
COc1ccccc1N1CCN(CCCNC(=O)NCc2ccccc2-c2cccc(F)c2)CC1	86	67	3.1	210	–
COCCOCCOc1ccc(NC(=O)NCCCN2CCN(c3ccccc3OC)CC2)c(-c2ccccc2)c1	130	74	–	86	Ki [11]: 22 nM; Ki [13]: 38 nM; Ki [14]: 3900 nM; Ki [15]: 220 nM; Ki [17]: 410 nM; Ki [18]: 1500 nM
COc1ccccc1N1CCN(CCCNC(=O)NN(Cc2ccccc2)c2ccc(F)cc2)CC1	–	–	–	–	EC50 [5]: 41 nM; EC50 [6]: 470 nM; EC50 [7]: 410 nM
COc1ccccc1N1CCN(CCCNC(=O)NCc2ccccc2-c2ccc(C)cc2)CC1	110	62	4.2	89	–
COc1ccc(-c2ccccc2)c(CNC(=O)NCCCN2CCN(c3ccccc3OC)CC2)c1	130	78	–	120	Ki [11]: 280 nM; Ki [13]: 8.9 nM; Ki [14]: 3000 nM; Ki [15]: 27 nM; Ki [17]: 200 nM; Ki [18]: 120 nM
COc1ccccc1N1CCN(CCCNC(=O)Nc2ccc(F)cc2-c2ccccc2)CC1	140	31	–	29	–
COc1ccccc1N1CCN(CCCNC(=O)Nc2ccccc2-c2ccccc2)CC1	210	100	–	57	remaining at 1 h, 40 µM [8]: 57%; Drug metabolism [9]: Metabolite_Detected; Drug metabolism [10]: Metabolite_Detected; Ki [11]: 730 nM; Retention_time [12]: 3.91 min; Ki [13]: 7.1 nM; Ki [14]: 4500 nM; Ki [15]: 25 nM; permeability [16]: 18.3%; Ki [17]: 28 nM; Ki [18]: 960 nM; permeability [19]: 22.2%
COc1ccccc1N1CCN(CCCNC(=O)NCc2ccccc2-c2ccc(C(C)C)cc2)CC1	400	170	36	190	–
COc1ccccc1N1CCN(CCCNC(=O)Nc2ccccc2-c2cccc(F)c2)CC1	170	110	4	23	–

Now from value to molecule, other results behind:

Ki [1] [nM]	Ki [2] [nM]	Ki [3] [nM]	Ki [4] [nM]	Structure (SMILES)	other results
160	37	3.1	92	COc1ccc(CNC(=O)NCCCN2CCN(c3ccccc3OC)CC2)c(-c2ccccc2)c1	–
210	140	–	73	COc1ccccc1N1CCN(CCCNC(=O)NCc2c(F)cccc2-c2ccccc2)CC1	–
86	46	3.5	39	C#CCOc1ccc(NC(=O)NCCCN2CCN(c3ccccc3OC)CC2)c(-c2ccccc2)c1	–
88	38	4.6	150	COc1ccccc1N1CCN(CCCNC(=O)NCc2cc(F)ccc2-c2ccccc2)CC1	–
150	90	–	34	COc1ccccc1N1CCN(CCCNC(=O)Nc2ccccc2-c2ccc(C(C)C)cc2)CC1	–
190	120	–	270	COc1ccccc1N1CCN(CCCNC(=O)NCc2ccccc2-c2ccccc2)CC1	remaining at 1 h, 40 µM [8]: 56%; Drug metabolism [9]: Metabolite_Detected; Drug metabolism [10]: Metabolite_Detected; Ki [11]: 480 nM; Retention_time [12]: 4.09 min; Ki [13]: 11 nM; Ki [14]: 3300 nM; Ki [15]: 62 nM; permeability [16]: 10.5%; Ki [17]: 120 nM; Ki [18]: 140 nM; permeability [19]: 15.7%
46	18	7.2	26	COc1ccccc1N1CCN(CCCNC(=O)Nc2cccc(-c3ccccc3)c2)CC1	–
73	40	2.7	99	COc1ccccc1N1CCN(CCCNC(=O)NCc2ccc(F)cc2-c2ccccc2)CC1	–
460	290	15	370	COc1ccccc1N1CCN(CCCNC(=O)NCc2ccccc2-c2ccc(-c3ccccc3)cc2)CC1	–
210	75	5.3	99	COc1ccccc1N1CCN(CCCNC(=O)NCc2ccccc2-c2ccc(F)cc2)CC1	–
120	78	30	70	COc1ccccc1N1CCN(CCCNC(=O)Nc2ccccc2-c2ccc(C(C)(C)C)cc2)CC1	–
–	–	1.1	62	COc1ccccc1N1CCN(CCCNC(=O)NCc2cccc(F)c2-c2ccccc2)CC1	–
